Assay results taken from PubChem BioAssay AID463199 (Broad Institute, 2010).
The source made the active and inactive calls.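 The calls were made as follows: active = AC50, the dose giving half-maximal effect, exceeds a fixed cutoff for a compound that rescues yeast growth under heat; inactive = the rest, inconclusive results apart.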

tested on: S. cerevisiae Burl-1 ts mutant growth, BacTiter-Glo, 38.5C 24 h; assay: restored growth of temperature-sensitive Burl-1 yeast – whole organism, S. cerevisiae, Burl-1 ts mutant, luminescence, counter-screen for SUMOylation pathway inhibitor project, dose response (AID 463199)

| SMILES | AC50 |
| --- | --- |
| O=C(CCCn1cnc([N+](=O)[O-])n1)Nc1cccc2ccccc12 | > 42 µM (inactive) |
| COc1ccccc1C(=O)N(NC(=O)Oc1ccccc1)C(C)(C)C | > 42 µM (inactive) |
| O=S(=O)(c1cccc(-c2nnco2)c1)N1CCCC1 | > 42 µM (inactive) |
| CCCc1nnc(NC(=O)c2cn(CC)c3cc(N4CCN(C)CC4)c(F)cc3c2=O)s1 | > 21 µM (inactive) |
| O=C(CCc1ccccc1)N1CCN(c2ccccc2F)CC1 | > 42 µM (inactive) |
| O=C(COc1ccccc1Cl)c1ccc[nH]1 | > 42 µM (inactive) |
| O=S(=O)(NCc1ccc(Cl)cc1)c1cnc[nH]1 | > 42 µM (inactive) |
| O=C1COc2ccc(C(=O)COC(=O)c3ncc(Cl)c(Cl)c3Cl)cc2N1 | > 42 µM (inactive) |
| Cc1ccc(S(=O)(=O)CCC(=O)OCC(=O)N(C)C2CCS(=O)(=O)C2)cc1 (stereo not drawn) | > 42 µM (inactive) |
| CCc1nnc(NC(=O)c2cccc(S(=O)(=O)N3CCN(c4ccccc4)CC3)c2)s1 | > 42 µM (inactive) |
| CCN(CC)C(=O)CSc1nnc(SCc2ccc(Cl)cc2)s1 | > 42 µM (inactive) |
| N/C(Cn1cncn1)=N\NC(=O)c1ccc(Cl)cc1Cl | > 42 µM (inactive) |
| CCOC(=O)N1CCN(c2cc3[nH]c(=S)[nH]c3cc2F)CC1 | > 42 µM (inactive) |
| CN(C)c1ccc(CN(Cc2ccco2)C(=O)c2ccco2)cc1 | > 42 µM (inactive) |
| COc1ccc(-c2nc(NC(=O)CCNC(=O)c3ccco3)sc2C)cc1 | > 42 µM (inactive) |
| COc1ccc(C(=O)Nc2ccccc2C(=O)NCCN2CCOCC2)cc1OC | > 42 µM (inactive) |
| Cc1ccc(Sc2cnccc2C#N)cc1 | > 42 µM (inactive) |
| O=C(O)CCC(=O)N1N=C(c2c(-c3ccccc3)c3cc(Cl)ccc3[nH]c2=O)CC1c1ccco1 (stereo not drawn) | > 42 µM (inactive) |
| Cc1ccc(C(=O)N/C(=C/c2ccccc2)C(=O)NCC2CCCO2)cc1 (stereo not drawn) | > 21 µM (inactive) |
| COc1ccc(CCNC(=O)Cn2nnc(-c3ccc(N4CCOCC4)cc3)n2)cc1OC | > 42 µM (inactive) |
| O=C(OCCCN=C1NS(=O)(=O)c2ccccc21)c1cccs1 | > 42 µM (inactive) |
| CC(C)c1onc(C(=O)N(C)Cc2ccccc2)c1[N+](=O)[O-] | > 42 µM (inactive) |
| CCC1CCCCN1CCCNC(=O)C1CCC(CNS(=O)(=O)c2c(C)cc(C)cc2C)CC1 (stereo not drawn) | > 42 µM (inactive) |
| COc1cc(/C=N/NC(=O)c2ccncc2)ccc1OC(=O)c1ccco1 | > 42 µM (inactive) |

| SMILES | AC50 |
| --- | --- |
| Cc1cccc(N=Nc2ccc(N(C)C)cc2)c1 | > 42 µM (inactive) |
| COC(=O)c1ccc(CSc2nc3ccccc3c(=O)n2CC(C)C)o1 | > 42 µM (inactive) |
| CC(C)[C@H](NC(=O)C1(c2ccccc2)CCN(C(=O)OC(C)(C)C)CC1)C(=O)O | > 42 µM (inactive) |
| Cc1ccc(S(=O)(=O)N2CCCC2C(=O)NCCc2ccccc2)cc1 (stereo not drawn) | > 42 µM (inactive) |
| Cc1cc(C(=O)NNC(=O)c2ccc(C)s2)c(C)o1 | > 42 µM (inactive) |
| O=c1c2ccccc2ncn1Cc1ccc2c(c1)OCO2 | > 42 µM (inactive) |
| CN(C)CCOC(c1ccc(Cl)cc1)c1ccccn1 (stereo not drawn) | > 42 µM (inactive) |
| CC(C)(C)NC(=O)C1Cc2ccccc2CN1S(=O)(=O)c1ccc(F)cc1 (stereo not drawn) | > 42 µM (inactive) |
| COc1ccc(C2NC(=O)c3ccccc3O2)cc1 (stereo not drawn) | > 42 µM (inactive) |
| O=C(COc1ccc([N+](=O)[O-])cc1)Nc1ccc(C(=O)NCc2cccnc2)cc1 | > 42 µM (inactive) |
| CN=C1SC(CC(=O)Nc2sc3c(c2C#N)CCCC3)C(=O)N1C (stereo not drawn) | > 42 µM (inactive) |
| COc1ccccc1-n1c(O)c(/C=C2\C=Nc3ccccc32)c(=O)[nH]c1=O | > 42 µM (inactive) |
| Cc1ccc(NC(=O)Cn2c(CCC(=O)O)ccc2-c2cccs2)cc1 | > 42 µM (inactive) |
| CC1CC(N(C(=O)c2ccccc2Cl)c2ccccc2)c2ccccc2N1 (stereo not drawn) | > 42 µM (inactive) |
| CCCS(=O)(=O)N1CCC(C(=O)N2CCc3ccccc3C2)CC1 | > 42 µM (inactive) |
| O=C1N=C(N2CCN(c3ccccc3)CC2)SC1Cc1ccccc1 (stereo not drawn) | > 42 µM (inactive) |
| CCOc1ccc(-c2nnc(SCC(=O)N3CCCC3)o2)cc1 | > 42 µM (inactive) |
| COC(=O)C1CN(C#N)N(c2ccc(Cl)cc2)C12c1ccccc1-c1ccccc12 (stereo not drawn) | > 42 µM (inactive) |
| COc1ccc(C)cc1NC(=S)N1CCN(c2ccccn2)CC1 | > 42 µM (inactive) |
| COc1ccc(N(CC(=O)NCc2ccc(C)cc2)S(=O)(=O)c2c(C)nn(C)c2C)cc1 | > 42 µM (inactive) |
| COc1cccc(NC(=O)CN2CCN(c3ccccc3F)CC2)c1 | > 42 µM (inactive) |
| CCC12CN3CCN(CC(C3)/C1=N/NC(=O)c1ccncc1)C2 | > 42 µM (inactive) |
| C(=N\Nc1ccc2nncn2n1)/c1ccccn1 | > 42 µM (inactive) |
| Cc1ccccc1-n1c(-c2cccnc2)n[nH]c1=S | > 42 µM (inactive) |
